According to patent publication US20250263376A1, “(E)-N-CINNAMOYLAMINOALKANOLS WITH MELANOGENESIS INHIBITORY ACTIVITY” (Uniwersytet Jagiellonski, priority 2024, published 2025):

Columns and labels:
[1] = system: B16-F10 murine melanoma cell line; assay: Cytotoxicity (MTT) in B16-F10 murine melanoma cells; assay type: cell-based; details: 48 h
Method: Cytotoxicity Assessment in the B16-F10 Murine Melanoma Cell Line (ATTC CRL-6745)—Preliminary Safety Assessment for Subsequent Studies
In order to determine safe doses of compounds for testing the inhibition of melanogenesis in a murine melanoma cell line, cytotoxicity tests were performed. Cytotoxicity was determined by the colorimetric method using MTT ([3-(4,5-dimethyl-2-thiazolyl)-2,5-diphenyl-2H-tetrazolium bromide, Sigma M5655). For this purpose, cells were transferred to 96-well plates in an amount of 5000/well. After 24 h of culture in an incubator in F10-Ham medium with 1% FBS, the tested compounds at various concentrations were added to the wells together with fresh medium. DMSO was added to the medium in a negative control. The MTT test was performed after further culture for 48 h. Then the medium was removed and the formed formazan crystals were dissolved in DMSO. The absorbance was measured at 570 nm in a plate reader and the result was compared to the control (DMSO), which was 100%. The percentage of viability was calculated using the formula: [AT/AC*100], where AT is the absorbance of the test sample, AC—absorbance of the control sample.

tyrosinase from mushroom [2] = biological target: T1, tyrosinase from mushroom (Agaricus bisporus, UniProt C7FF04); assay: Inhibition of commercial mushroom tyrosinase, substrate L-DOPA; assay type: biochemical; details: for inhibition at 500 µM: read-out: Tyrosinase inhibition with L-DOPA [%]
T1 sequence (C7FF04 2-392): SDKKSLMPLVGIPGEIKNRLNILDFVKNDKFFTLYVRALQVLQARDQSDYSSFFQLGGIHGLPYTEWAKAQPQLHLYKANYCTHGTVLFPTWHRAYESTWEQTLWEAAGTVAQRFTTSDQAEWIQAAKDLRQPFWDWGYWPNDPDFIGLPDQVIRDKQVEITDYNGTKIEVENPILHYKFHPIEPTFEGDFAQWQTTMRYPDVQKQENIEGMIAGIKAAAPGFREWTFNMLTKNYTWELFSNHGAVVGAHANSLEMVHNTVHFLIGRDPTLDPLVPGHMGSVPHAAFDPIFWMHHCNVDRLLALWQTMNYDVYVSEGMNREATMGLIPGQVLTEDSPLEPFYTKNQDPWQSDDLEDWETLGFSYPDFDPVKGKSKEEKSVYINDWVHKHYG
T1 sequence (G1K3P4 entry or part of it, further chain): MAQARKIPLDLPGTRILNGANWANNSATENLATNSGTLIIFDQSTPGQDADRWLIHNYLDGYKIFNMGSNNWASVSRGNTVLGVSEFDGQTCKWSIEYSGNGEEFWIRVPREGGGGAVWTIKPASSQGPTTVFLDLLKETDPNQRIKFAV
Method: (§1) Studies on the Inhibition of the Activity of Commercial Tyrosinase from Mushroom (Sigma: T3824)
(§2) The following substrates were used for the enzymatic reaction: L-tyrosine and L-3,4-dihyroxyphenylalanine (L-DOPA). Both substrates were used in independent experiments. According to the literature, the use of L-DOPA enables the assessment of tyrosinase diphenolase activity, and L-tyrosine—the tyrosinase monophenolase activity. The determinations were performed in 96-well plates, in each well there was placed: 170 μL or 127.5 μL of 50 mM phosphate buffer (pH=6.8) with tyrosinase (1U/well or 3U/well) and 10 μL of a solution of the tested compound in DMSO (the final concentration in the well was 500 μM, 250 μM or 125 μM). The negative control used 10 u L of pure solvent (DMSO). To initiate the reaction, an appropriate substrate was added: L-tyrosine (62.5 μL of solution in phosphate buffer) or L-DOPA (20 μL of solution in phosphate buffer). After a 25-minute incubation, the absorbance was measured at 475 nm using a microplate reader. The percentage of inhibition of tyrosinase activity was calculated using the formula: [(AC−AT)/[…], where AC—is the absorbance of the negative control, AT—is the absorbance of the sample containing the tested compound.

[3] = Lipophilicity coefficient RM0 by reversed phase thin layer chromatography; assay type: physicochemical; details: RP-18 TLC, methanol/phosphate buffer pH=7.4
Method: Confirmation of the identity and purity of the obtained compounds consisted in the registration and interpretation of 1H NMR and 13C NMR spectra (the spectra were recorded using an ECZR 500 MHZ (JEOL) series FT-NMR spectrophotometer), as well as the registration and interpretation of LC-MS spectra (the spectra were recorded using Acquita UPLC system (Waters) coupled with a Waters TQD mass spectrometer). The melting point was measured using the open capillary method in the IA9300 device (Electrothermal). The lipophilicity coefficient RM0 was determined by reversed phase thin layer chromatography. In the study, aluminum plates 20×20 cm covered with modified silica gel RP-18 F254 (Merck) were used as the solid phase. The mobile phase consisted of solutions of methanol and 100 mM phosphate buffer (pH=7.4), characterized by a variable methanol content ranging from 95 to 65% (v/v). The tested compounds were dissolved in methanol to obtain solutions with a concentration of 1 mg/mL. Then, […] of the solutions prepared in this way were transferred to the starting line on aluminum plates, which were then placed in chromatographic chambers previously saturated with mobile phase vapors for at least 1 hour. All activities, including the development of chromatograms, were carried out at room temperature. After developing the chromatograms to approximately 1-2 cm from the end of the plate, the plates were dried and then the distance traveled by the tested compounds was visualized under UV light (λ=254 nm). The experiment was performed in duplicate for the specified conditions. For all samples, Rf was calculated according to the formula Rf=a/b, where a—the distance traveled by the tested compound, b—the distance traveled by the mobile phase. Then, the RM parameter was calculated for all samples according to the formula RM=log (1/Rf−1), obtaining a linear relationship between the RM values and the methanol concentration in the mobile phase. The log P coefficient was also calculated using the following computer programs: ACD/ChemSketch 2020.1.2 and ChemDraw 20.0.0.41.

S. typhimurium TA98 = assay: Ames microplate test, TA98; assay type: cell-based, Salmonella typhimurium; details: without S9
Method: (§3) Bacteria were grown overnight in growth medium.

E. coli WP2 = assay: Ames microplate test, E. coli WP2; details: without S9;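 also: bacteria exposed to compound for 90 min at 37 °C in 24-well plates, then transferred with indicator medium to 384-well plates and incubated 48 h before yellow well counting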
Method: (§4) The study used the Ames microplate test (Ames MPF™ Penta 2 by Xenometrix, Allschwil, Switzerland). Growth medium, exposure medium, indicator medium, positive controls, hepatic microsomal fraction, NADP, glucose-6-phosphate, Salmonella typhimurium and Escherichia coli strains were components of the purchased experimental kit. Bacteria were grown overnight in growth medium. They were then exposed to the test compound at the appropriate concentration in exposure medium without or with the rat microsomal fraction S9 in 24-well plates for 90 min at 37° C. with shaking. Then, indicator medium was added to the wells and pipetted into 384-well plates, which were incubated for 48 hours at 37° C. without shaking. Results were assessed by counting the wells in which the medium turned yellow for each experimental condition.

S. typhimurium TA100 = assay: Ames microplate test, TA100; assay type: cell-based, Salmonella typhimurium; details: without S9
Method: as §4

CHO-K1 cells = assay: Cytotoxicity (MTT) in CHO-K1 cells before the micronucleus test; assay type: cell-based, Chinese hamster; details: 24 hours
Method: The assay was performed using a Chinese hamster ovary cell line (CHO-K1) purchased from the American Type Culture Collection (ATCC). The cells were cultured in F-12K medium with the addition of 10% fetal bovine serum (FBS) and antibiotics (streptomycin/penicillin) in an incubator at 37° C. and 5% CO2 concentration). Before the actual micronucleus test, a cytotoxicity assessment was performed to ensure that the actual test was performed only at safe concentrations. For this purpose, cells were transferred to 96-well plates and incubated with the tested compounds for 24 hours. After this time, the MTT test was performed and cell viability was assessed in comparison to the control group (cells cultured with DMSO at the same concentration as in the case of the tested samples).

S. typhimurium TA1537 = assay: Ames microplate test, TA1537; assay type: cell-based, Salmonella typhimurium; details: without S9
Method: as §3

tyrosinase from mushroom [4] = biological target: T1, tyrosinase from mushroom; assay: Inhibition of commercial mushroom tyrosinase, substrate L-tyrosine; assay type: biochemical; details: for inhibition at 500 µM: read-out: Tyrosinase inhibition with L-tyrosine [%]
Method: as §1, §2

S. typhimurium TA1535 = assay: Ames microplate test, TA1535; details: without S9;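 also: bacteria exposed 90 min at 37 °C in exposure medium, then 48 h in indicator medium in 384-well plates, yellow (revertant) wells counted per condition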

| SMILES | inhibition at 500 µM (tyrosinase from mushroom [2]) | RM0 [3] | inhibition at 500 µM (tyrosinase from mushroom [4]) | Cytotoxicity study in B16F10 cells, % viability ([1]; 150 μM) | Cytotoxicity study in B16F10 cells, % viability ([1]; 200 μM) | Cytotoxicity study in B16F10 cells, % viability ([1]; 250 μM) | further results |
| --- | --- | --- | --- | --- | --- | --- | --- |
| CC(CO)NC(=O)/C=C/c1ccc(Cl)cc1 (stereo not drawn) [Compound A-102, (2E)-3-(4-chlorophenyl)-N-(1-hydroxypropan-2-yl)prop-2-enamide] | 53 ± 1.99% | 2.12 | 75.5 ± 1.8% | 80.6% | 83.5% | 75.7% | Increase in the number of yellow wells compared to the reference level, TA98 (S. typhimurium TA98; 0.5 mM): 0.24; Increase in the number of yellow wells compared to the reference level, TA98 (S. typhimurium TA98; 1.0 mM): 0.24; Increase in the number of yellow wells compared to the reference level, TA98 (S. typhimurium TA98; 2.0 mM): 0.35; Increase in the number of yellow wells compared to the reference level, E. coli WP2 (E. coli WP2; 0.5 mM): 0.48; Increase in the number of yellow wells compared to the reference level, E. coli WP2 (E. coli WP2; 1.0 mM): 1.03; Increase in the number of yellow wells compared to the reference level, E. coli WP2 (E. coli WP2; 2.0 mM): 0.79; Increase in the number of yellow wells compared to the reference level, TA100 (S. typhimurium TA100; 0.5 mM): 1.08; Increase in the number of yellow wells compared to the reference level, TA100 (S. typhimurium TA100; 1.0 mM): 0.75; Increase in the number of yellow wells compared to the reference level, TA100 (S. typhimurium TA100; 2.0 mM): 0.92; % Viability [mean], CHO-K1 (CHO-K1 cells; 100 μM): 84.7%; % Viability [mean], CHO-K1 (CHO-K1 cells; 150 μM): 69.9%; % Viability [mean], CHO-K1 (CHO-K1 cells; 200 μM): 87.2%; Increase in the number of yellow wells compared to the reference level, TA1537 (S. typhimurium TA1537; 0.5 mM): 0.33; Increase in the number of yellow wells compared to the reference level, TA1537 (S. typhimurium TA1537; 1.0 mM): 0.00; Increase in the number of yellow wells compared to the reference level, TA1537 (S. typhimurium TA1537; 2.0 mM): 1.00; Increase in the number of yellow wells compared to the reference level, TA1535 (S. typhimurium TA1535; 0.5 mM): 0.55; Increase in the number of yellow wells compared to the reference level, TA1535 (S. typhimurium TA1535; 1.0 mM): 0.14; Increase in the number of yellow wells compared to the reference level, TA1535 (S. typhimurium TA1535; 2.0 mM): 0.89 |
| O=C(/C=C/c1ccccc1)NCCO [H-429/21, (2E)-N-(2-hydroxyethyl)-3-phenylprop-2-enamide] | 30.5 ± 1.2% | 1.27 | 21 ± 8.83% | 86.4% | 79.8% | 80.9% |  |
| O=C(/C=C/c1ccccc1)NCCCO [KM-634, (2E)-N-(3-hydroxypropyl)-3-phenylprop-2-enamide] | 34.2 ± 2.32% | 1.60 | 27.4 ± 2.24% | 76.1% | 70.5% | 63.3% |  |

Now from value to compound, other results behind:

| inhibition at 500 µM (tyrosinase from mushroom [2]) | RM0 [3] | inhibition at 500 µM (tyrosinase from mushroom [4]) | SMILES | Cytotoxicity study in B16F10 cells, % viability ([1]; 150 μM) | Cytotoxicity study in B16F10 cells, % viability ([1]; 200 μM) | Cytotoxicity study in B16F10 cells, % viability ([1]; 250 μM) | further results |
| --- | --- | --- | --- | --- | --- | --- | --- |
| 16.9 ± 7.94% | 2.27 | 20.4 ± 2.09% | Cc1ccc(/C=C/C(=O)NCCCCO)cc1 [H-411/21, (2E)-N-(4-hydroxybutyl)-3-(4-methylphenyl)prop-2-enamide] | 50.6% | 34.9% | 41.2% |  |
|  | 3.02 |  | O=C(/C=C/c1ccc(Cl)cc1)NCCCCCCO [H-426/21, (2E)-3-(4-chlorophenyl)-N-(6-hydroxyhexyl)prop-2-enamide] | 30.3% | 28.2% | 28.3% | inhibition at 125 µM (tyrosinase from mushroom [2]; 125 μM): 30.7 ± 1.82%; inhibition at 125 µM (tyrosinase from mushroom [4]; 125 μM): 39.9 ± 3.21% |
